Assay results taken from US20110002843A1, “METHOD OF DETECTING MYOCARDIAL DYSFUNCTION IN PATIENTS HAVING A HISTORY OF ASTHMA OR BRONCHOSPASM” (priority 2005, published 2011).
Where two headings read alike, the source gives them in different places.

Experiment: Single-dose pharmacokinetics, safety and tolerability of 10-minute intravenous infusion in healthy volunteers
Format: in vivo, human
Conditions: for Cmax / Tmax / AUC(0-inf) / AUC(0-t) / clearance / half-life / Vd: human, plasma; for Cmax: read-out: Cmax, mean (SD); for AUC(0-inf): read-out: AUC0-∞, mean (SD) (converted); for AUC(0-t): read-out: AUClast, mean (SD) (converted); for Vd: read-out: Vz, mean (SD)
Experimental: Subjects: This study was conducted at the New Orleans Center for Clinical Research, New Orleans, La., in accordance with US Good Clinical Practice guidelines. Subjects were required to be in generally good health as determined by physical examination and laboratory testing, as well as assessment of vital signs. Exclusion criteria included testing positive on drug screening (drugs of abuse); ingesting caffeine, alcohol, or medication within 24 hours of study entry; or receiving an investigational drug with 30 days of study entry. Women of childbearing potential and men whose female partners were not using an acceptable contraceptive method were excluded. Other exclusion criteria included subjects with known postural hypotension, resting supine systolic blood pressure of 90 mmHg or lower, diastolic blood pressure of 60 mmHg or lower and heart rate of 90 beats/min or greater; history of human immunodeficiency virus infection; positive test result for hepatitis B surface antigen or hepatitis C antibody; and any clinically relevant condition that could potentially confound the analysis or present a safety risk.
Study Methods: The study was designed as a single-center, open-label, nonrandomized, intravenous dose-escalation study in 4 cohorts (n=6 each) of healthy volunteers. The protocol was approved by the institutional review board; all subjects gave written informed consent. Subjects from each cohort were to receive 3 rising doses of binodenoson administered via intravenous infusion over a period of 10 minutes, at a rate not to exceed 6 μg/kg/min. Although the successive doses of binodenoson were administered on the same study day, the washout period between doses was at least 2 hours. Subjects in cohort 1 received consecutive binodenoson doses of 0.1, 0.2 and 0.4 μg/kg; cohort 2 received 0.6, 1 and 2 μg/kg; cohort 3 received 2, 3 and 4 μg/kg; and cohort 4 received 4, 5 and 6 μg/kg.
Serial vital sign monitoring of heart rate, supine systolic blood pressure and diastolic blood pressure was done at screening and during each dosing phase within 10 minutes before infusion, at 2, 4, 6, 8 and 10 minutes during infusion and at 2, 5, 7.5, 10, 15, 20, 30, 45, 60, 90 and 120 minutes after infusion. A 12-lead electrocardiogram (ECG) was obtained at screening and the end of the study. The ECG was monitored via telemetry during the treatment phase, including during the infusions. Monitoring was initiated within 1 hour before dosing and continued until 24 hours after completion of the last dose.
A total of 40 to 42 blood samples were collected during the treatment phase for quantitation of binodenoson in plasma. Before dosing, a polyethylene catheter was inserted into a vein of the forearm contralateral to the infusion site. Blood samples (5 mL) were drawn into prechilled Vacutainer tubes (BD, Franklin Lakes, N.J.) just before infusion (−1 minute), at the midpoint (5 minutes) and end (10 minutes) of infusion and at 2, 5, 7.5, 10, 15, 20, 30, 45, 60, 90 and 120 minutes after the end of infusion. Plasma was separated from cellular material by centrifugation under refrigeration (4° C.) at 4000 rpm for 10 minutes and then stored in cryotubes at −80° C. until analyzed. The total amount of blood taken during the intensive sampling period was approximately 200 mL. Plasma concentrations of binodenoson were determined by a validated high-performance liquid chromatography-mass spectrometry (LC/MS/MS) assay at Phoenix International, Inc. (Montreal, Quebec, Canada).
Pharmacokinetic parameters were derived for each subject's plasma binodenoson concentration-time profile for each binodenoson infusion by use of noncompartmental methods with the statistical software program SAS (SAS Institute, Cary, N.C.). The peak concentration (Cmax) and corresponding time to (Cmax) (tmax) were derived by observation. […]

[1] = 0.4 ug/kg, 0.4 μg/kg iv over 10 minutes
[2] = 0.6 ug/kg, 0.6 μg/kg iv over 10 minutes
[3] = 1 ug/kg, 1 μg/kg iv over 10 minutes
[4] = 2 ug/kg, 2 μg/kg iv over 10 minutes
[5] = 3 ug/kg, 3 μg/kg iv over 10 minutes
[6] = 4 ug/kg, 4 μg/kg iv over 10 minutes
[7] = 6 ug/kg, 6 μg/kg iv over 10 minutes
[8] = 8 ug/kg, 8 μg/kg iv over 10 minutes

In the case of Nc1nc(N/N=C/C2CCCCC2)nc2c1ncn2[C@@H]1O[C@H](CO)[C@@H](O)[C@H]1O (stereo in doubt) [Binodenoson, 2-{2-[(Cyclohexyl)methylene]hydrazino}adenosine], the “maximum increase in heart rate” value (1 μg/kg dose) is reported as 29 beats/min, the “mean maximal increase in systolic blood pressure from baseline” value (1 μg/kg dose) is reported as 8.8 mmHg and the “maximum increase in heart rate” value (6 μg/kg dose) is reported as 66.3 beats/min. For the same molecule, the “mean maximal increase in systolic blood pressure from baseline” value (6 μg/kg dose) was 27.9 mmHg, the “volunteers reporting at least 1 AE” value (21 of 24 volunteers) was 83% and the “AEs judged related to administration of binodenoson” value (all doses) was 99%. The “AEs of mild severity” value (all doses) was 82%, the “AEs of moderate severity” value (all doses) was 17% and the “AEs that began during drug infusions and resolved within 30 minutes of onset” value (all doses) was 75%. The ECG changes (all doses) was “no clinically significant ECG changes”, the “serious AEs” value (all doses) was “no serious AEs” and the frequency of dizziness (doses of 1 μg/kg or lower) was 0%. For the same molecule, the frequency of headache (doses of 1 μg/kg or lower) was 7%, the frequency of nausea/vomiting (doses of 1 μg/kg or lower) was 0% and the frequency of paresthesia (doses of 1 μg/kg or lower) was 3%. For the same molecule, the frequency of vasodilation (doses of 1 μg/kg or lower) was 14%, the frequency of dizziness (doses of 2 μg/kg or greater) was 24% and the frequency of headache (doses of 2 μg/kg or greater) was 60%. For the same molecule, the frequency of nausea/vomiting (doses of 2 μg/kg or greater) was 49%, the frequency of paresthesia (doses of 2 μg/kg or greater) was 19% and the frequency of vasodilation (doses of 2 μg/kg or greater) was 54%. The tolerability (doses ranging from 0.4 μg/kg to 6 μg/kg) was “well tolerated”, the Cmax [1] was 0.9 ng/mL and the Cmax [2] was 1.1 ng/mL. It also gave a Cmax [3] of 2.1 ng/mL, a Cmax [4] of 3.9 ng/mL and a Cmax [5] of 6.2 ng/mL. The Cmax [6] was 8.7 ng/mL, the Cmax [7] was 12.5 ng/mL and the Cmax [8] was 12.1 ng/mL. The Tmax [1] was 10 min, the AUC(0-inf) [1] was 0.207 ng·h/mL and the AUC(0-t) [1] was 0.15 ng·h/mL. It also gave a clearance (0.4 ug/kg, 0.4 μg/kg iv over 10 minutes, read-out: CL, mean (SD)) of 33.4 mL/min/kg, a half-life (0.4 ug/kg, 0.4 μg/kg iv over 10 minutes, read-out: T1/2, mean (SD)) of 8.8 min and a Vd [1] of 0.39 L/kg. It also gave a Tmax [2] of 7.5 min, an AUC(0-inf) [2] of 0.353 ng·h/mL and an AUC(0-t) [2] of 0.208 ng·h/mL. The clearance (0.6 ug/kg, 0.6 μg/kg iv over 10 minutes, read-out: CL, mean (SD)) was 28.8 mL/min/kg, the half-life (0.6 ug/kg, 0.6 μg/kg iv over 10 minutes, read-out: T1/2, mean (SD)) was 11.7 min and the Vd [2] was 0.46 L/kg. It also gave a Tmax [3] of 10 min, an AUC(0-inf) [3] of 0.465 ng·h/mL and an AUC(0-t) [3] of 0.415 ng·h/mL. It also gave a clearance (1 ug/kg, 1 μg/kg iv over 10 minutes, read-out: CL, mean (SD)) of 38.3 mL/min/kg, a half-life (1 ug/kg, 1 μg/kg iv over 10 minutes, read-out: T1/2, mean (SD)) of 7.4 min and a Vd [3] of 0.4 L/kg. For the same molecule, the Tmax [4] was 10 min, the AUC(0-inf) [4] was 0.928 ng·h/mL and the AUC(0-t) [4] was 0.855 ng·h/mL. The clearance (2 ug/kg, 2 μg/kg iv over 10 minutes, read-out: CL, mean (SD)) was 33 mL/min/kg, the half-life (2 ug/kg, 2 μg/kg iv over 10 minutes, read-out: T1/2, mean (SD)) was 10 min and the Vd [4] was 0.48 L/kg. The Tmax [5] was 9.5 min, the AUC(0-inf) [5] was 1.42 ng·h/mL and the AUC(0-t) [5] was 1.31 ng·h/mL. It also gave a clearance (3 ug/kg, 3 μg/kg iv over 10 minutes, read-out: CL, mean (SD)) of 35.4 mL/min/kg, a half-life (3 ug/kg, 3 μg/kg iv over 10 minutes, read-out: T1/2, mean (SD)) of 12.8 min and a Vd [5] of 0.65 L/kg. For the same molecule, the Tmax [6] was 10 min, the AUC(0-inf) [6] was 2.03 ng·h/mL and the AUC(0-t) [6] was 1.93 ng·h/mL. For the same molecule, the clearance (4 ug/kg, 4 μg/kg iv over 10 minutes, read-out: CL, mean (SD)) was 39.8 mL/min/kg, the half-life (4 ug/kg, 4 μg/kg iv over 10 minutes, read-out: T1/2, mean (SD)) was 13 min and the Vd [6] was 0.69 L/kg. For the same molecule, the Tmax [7] was 9 min, the AUC(0-inf) [7] was 2.32 ng·h/mL and the AUC(0-t) [7] was 2.22 ng·h/mL. The clearance (6 ug/kg, 6 μg/kg iv over 10 minutes, read-out: CL, mean (SD)) was 33.9 mL/min/kg, the half-life (6 ug/kg, 6 μg/kg iv over 10 minutes, read-out: T1/2, mean (SD)) was 14.9 min and the Vd [7] was 0.7 L/kg. It also gave a Tmax [8] of 10.5 min, an AUC(0-inf) [8] of 2.72 ng·h/mL and an AUC(0-t) [8] of 2.6 ng·h/mL. It also gave a clearance (8 ug/kg, 8 μg/kg iv over 10 minutes, read-out: CL, mean (SD)) of 39.5 mL/min/kg, a half-life (8 ug/kg, 8 μg/kg iv over 10 minutes, read-out: T1/2, mean (SD)) of 12.3 min and a Vd [8] of 0.68 L/kg. For the same molecule, the clearance (intravenous, across all dose levels, read-out: mean systemic clearance) was 34.4 ± 7.5 mL/min/kg, the half-life (intravenous, across all doses, read-out: terminal half-life, harmonic mean) was 10 ± 4 min and the “relationship between clearance (CL) and body weight (BW)” value (linear mixed-effect model, p=0.004) was “CL=−0.19+0.039 BW”. For the same molecule, the “AUC0-t as share of total AUC0-∞” value (trapezoidal rule) was “greater than 80%”.
